Measured values published in patent US20250213593A1, “Use of Derivatives based on Sarsasapogenin Structure and Pharmaceutical Compositions thereof” (BEIJING PHYTOVENT PHARMACEUTICAL TECHNOLOGY CO., LTD., priority 2022, published 2025).
Entries after “also recorded” stand apart in the source; their conditions may differ. Marks after values point to notes of the source that are not given here.

Experiments:
[1] = test system: human SHSY5Y neural tumor cells; assay: H2O2-induced oxidative damage of SHSY5Y cells (MTT); assay type: cell-based; conditions: 1 μM, pre-protected 24 h, 250 μM H2O2 24 h
[2] = test system: transgenic neutrophil fluorescent zebrafishes; assay: Anti-inflammatory effect on LPS-induced inflammatory zebrafish; assay type: in vivo; conditions: 80 μM; for Number of neutrophils (mean ± SE): 3 h, n = 10, model control 18, normal control 3
Procedure: LPS was used to treat normal 3 dpf transgenic neutrophil fluorescent zebrafishes in a yolk sac injection, and a zebrafish inflammation model was established.
Transgenic neutrophil fluorescent zebrafishes (3 dpf), well developed and consistent in stage on 3 days after fertilization, were picked under a microscope and placed in a six-well plate, with 30 zebrafishes being randomly picked for each well at a capacity of 3 mL in each well. A zebrafish inflammation model was established by administrating LPS in a yolk sac injection. “Embodiment 5” and “Embodiment 6” were respectively dissolved with water, wherein the concentrations were 0.28 μM, 0.83 μM and 2.5 μM, respectively. The concentration of indomethacin was 80 μM. Meanwhile, a normal control group (i.e., zebrafishes were treated with fish-farming water) and a model control group were set, and incubated in a 28° C. incubator for 3 h. 10 zebrafishes were randomly selected from each group, and observed and photographed under a fluorescence microscope, and the photos were saved. Nikon NIS-Elements D 3.10 advanced image processing software was used for image analysis, the number (N) of inflammatory neutrophils in zebrafish was calculated, and the statistical processing results were expressed as mean±SE. The statistical analysis results of the number of inflammatory neutrophils in zebrafish were used to evaluate whether “Embodiment 5” and “Embodiment 6” had significant anti-inflammatory effects on LPS-induced inflammatory zebrafish, respectively. A formula for calculating the anti-inflammatory effects of “Embodiment 5” and “Embodiment 6” was as follows: […]

[3] = test system: rats with ulcerative colitis induced by TNBS; assay: TNBS rats enteritis model; assay type: in vivo, rat; conditions: 80 mpk oral gavage once a day, 7 days
Procedure: All rats except the normal control group were fasted for solids (not liquids) for 24 h. After being anesthetized with isoflurane, the rats were transrectally infused with a TNBS ethanol solution (18 mg TNBS/mouse) at 0.5 mL/mouse through a latex hose, the length of the hose into the rectum was about 8 cm, an anesthesia state was continued after the hose was withdrawn, and the rats were kept in an inclined state for 15 min. The rats in the normal control group were not stimulated with rectal cannula. After the animals were awake, they were randomly divided into groups, which then began to be administrated with drugs (marked as D1). The blank group and the model group were administrated with the same amount of vehicle by oral gavage once a day for 7 consecutive days (D1-D7). The animal's status and feces (loose stools or bloody stools) were observed every day. The body weights were monitored. On the next day after the last administration (D8), the animals were deeply anesthetized with CO2, sacrificed and dissected. The entire colon tissues were harvested. The colon content was washed with normal saline after dissection along the mesenteric side. The body weights were measured and the colon lengths were measured. A ulcer surface was measured by Image J software. The general conditions of the colons were observed and photographed. Some of diseased tissues were fixed with formalin, and subjected to histopathological observation by HE staining. • Results: (1) the effects on general conditions of TNBS colitis mice were shown in FIG. 46a: the rats had loose stool on the next day of TNBS modeling; and the modeled mice had symptoms of reduced diet, tiredness, emaciation, erect hair, and dull hair. The feces of some rats were improved in the later stage of administration, but some rats still maintained loose stool until the end of the experiment, and some rats had obvious abdominal distension in the later stage of the experiment.

[4] = test system: hippocampal neurons; assay: L-cysteine-induced neuronal excitotoxicity; assay type: cell-based, SD rats; conditions: for protective effects on L-Cystine (400 μM)-induced neuronal excitotoxicity: compound 1 μM, 24 h before inducer
Procedure: Experimental and analytical method: before the experiment, a 24-well cell culture plate was pretreated with Poly-D-lysine and placed in a cell incubator at 37° C. and 5% CO2 overnight. SD rats, 18 days pregnant, were ordered, brains of fetal rats (E18-19) were dissected, and hippocampal neurons in the brains were subjected to primary culture in a neuronal medium using a 24-well plate, and then cultured by a serum-free medium. The hippocampal neurons were cultured in a cell incubator at 37° C., 5% CO2 for 19 days (DIV19), then added with a compound to be tested (a final concentration of 1 μM) and a positive control AP5 [(2R)-amino-5-phosphonopentanoic acid(phosphonatopentanoate)] (a final concentration of 100 μM), cultured for 24 h, and then added with L-Cystine (400 μM) and NaHCO3 (10 mM). After 18 h, Hoechst3342 (2.5 μg/ml) was added for cell staining. The cells were placed in the incubator and cultured for 15 min, and photographed using the high-content fluorescence microscope, wherein 6 random non-overlapping fields were photographed for each duplicate well, and the total number of neurons and the number of dead neurons were counted with software Image J. The obtained data was used to determine whether there was a difference between a drug treatment group and a control group.
Compound treatment: 32 small molecule compounds in Embodiment 1 to Embodiment 19A were diluted with DMSO to a 1 mM mother solution; and 1 μL of mother solution was added to 1 ml of culture solution per well in a 24-well plate to a final concentration of 1 μM, wherein a positive control compound was […] of AP5 (100 mM mother solution), and a negative control was 1 μl of DMSO.

[5] = test system: C57BL/6J mice, LPS-induced peripheral and central inflammation; assay: LPS-induced peripheral and central inflammation mouse model; assay type: in vivo; conditions: 30 mg/kg p.o. QD*3
Procedure: Modeling method: LPS (2 mg/kg, i.p., QD) was injected on Day 1, Day 2 and Day 3 to induce peripheral and central inflammations of mice. An ND drug test group was subjected to administration pre-protection (ND 30 mg/kg, p.o., QD) 2 h before LPS injection. After the experiment, plasma and brain tissues of the mice were collected for inflammatory factors, peroxidation factors and other indicators.
• Serum: after the mice were anesthetized with 1% sodium pentobarbital, the eyeballs were harvested, the blood was taken and placed in an EP tube, and then centrifuged at low temperature after standing at 4° C. for 1 h, and a supernatant was taken, and frozen quickly in liquid nitrogen. • Hippocampal tissues: the mice were anesthetized with 1% sodium pentobarbital and then subjected to cardiac perfusion with cold PBS, brains were harvested, and tissues were taken on ice and frozen quickly in an EP tube with liquid nitrogen.
Cryopreserved plasma was taken, and an reactive oxygen detection kit, a hydrogen peroxide detection kit and a nitric oxide detection kit were used to detect various indicators. The specific operation processes were the same as the instruction of each kit.
The cryopreserved hippocampal tissues were taken, added with a RIPA tissue lysate containing a protease inhibitor, fully homogenized and cleaved. A supernatant was taken after low-temperature centrifugation. The protein quantification was performed by a BCA protein quantification kit. Tissue samples were adjusted to a unified protein concentration. An reactive oxygen detection kit, a hydrogen peroxide detection kit and a nitric oxide detection kit were used to detect various indicators.
Cryopreserved plasma was taken, and IL-1β, IL-6 and IL-10 kits were used to detect various indicators. The specific operation processes were the same as the instruction of each kit.
A hippocampal tissue supernatant was taken, and IL-1β, IL-6 and IL-10 kits were used to detect various indicators. The specific operation processes were the same as the instruction of each kit.
Experimental results were expressed as “mean±standard deviation”. One-way ANOVA was used to compare the data of each group to determine whether there was a statistical difference between the groups.

[6] = test system: mice with ulcerative colitis induced by 3.0% DSS; assay: DSS mouse enteritis model; assay type: in vivo
Excerpt: 60 mice in good health were divided into 6 groups according to body weight, with 10 mice in each group: a normal control group, a model group, a positive drug group, and groups of different test products (Embodiment 13B, Embodiment 33, and Embodiment 34, at a dosage of 80 mpk each). In addition to the normal control group, the mice in other groups were administrated with a 3.0% DSS solution to drink freely, and consecutively modeled for 8 days. The normal control group was administrated with autoclaved filtered water to drink freely. The drug was administered on the day of modeling, and a test product was administered by oral gavage according to a designed dosage, once a day for 9 consecutive days. […] On the next day after the last administration, after deep anesthesia with CO2, cardiac blood and plasma were collected, and cryopreserved at −80° C. Subsequently, the abdominal cavity was dissected, the liver was removed and cryopreserved at −80° C. Finally, the entire colon tissue was removed, the colon length was measured, photographs were taken, and the colon content was washed with normal saline after dissection along the mesenteric side and weighed.

[7] = 80 mpk oral gavage once a day, 9 days

C[C@H]1CC[C@@]2(OC1)OC1CC3C4CC[C@@H]5C[C@@H](NC(=O)CC(=O)NCCO)CC[C@]5(C)C4CC[C@]3(C)C1[C@@H]2C (stereo partly shown) [Embodiment 14A] was tested, and the “protection of H2O2-induced neural tumor cell damages” value [1] was “significantly protected”.
For COc1ccc2c(c1)c(CC(=O)O)c(C)n2C(=O)c1ccc(Cl)cc1 [indomethacin, Indomethacin, reference compound], the “Inflammation resolution (%) / anti-inflammatory effect” value [2] was 67%, the “Number of neutrophils (mean ± SE)” value [2] was 6 and the “Number of neutrophils (mean ± SE)” value ([2]; listed as Indomethacin) was 6 ± 0.31. For the same compound, the “anti-inflammatory effect on inflammatory zebrafish (in words)” value ([2]; P<0.001 vs model control) was “obvious anti-inflammatory effect” and the “Inflammation resolution (%) / anti-inflammatory effect” value ([2]; listed as Indomethacin) was 67*** %.
With C[C@H]1CC[C@@]2(OC1)O[C@H]1C[C@H]3[C@@H]4CC[C@@H]5CC(NC(=O)CC(=O)N6CCN(C7CCN(CCF)CC7)CC6)CC[C@]5(C)C4CC[C@]3(C)[C@H]1[C@@H]2C (stereo partly shown) [Embodiment 36] the colon ulcer area [3] was “could reduce” and the “colon weight per unit length (colon weight/colon length)” value [3] was “could reduce”.
C[C@H]1CC[C@@]2(OC1)O[C@H]1C[C@H]3[C@@H]4CC[C@@H]5CC(NC(=O)CC(=O)N6CCN(C(=O)CN(C)C)CC6)CC[C@]5(C)C4CC[C@]3(C)[C@H]1[C@@H]2C (stereo partly shown) [Embodiment 37] was tested, and the colon ulcer area [3] was “could reduce” and the “colon weight per unit length (colon weight/colon length)” value [3] was “could reduce”.
With C[C@H]1CC[C@@]2(OC1)O[C@H]1C[C@H]3[C@@H]4CC[C@@H]5C[C@H](NC(=O)CCN(C)C)CC[C@]5(C)[C@H]4CC[C@]3(C)[C@H]1[C@@H]2C [Embodiment 4B] the “protective effects on L-Cystine (400 μM)-induced neuronal excitotoxicity” value (shortened to “protective effects on L-Cystine”) [4] was “protective effects”.
C[C@H]1CC[C@@]2(OC1)O[C@H]1C[C@@H]3[C@H](CC[C@H]4[C@H]3CC[C@@H]3CC(NC(=O)CC(=O)NCC5CCN(C)CC5)CC[C@@]34C)[C@H]1[C@@H]2C (stereo partly shown) [Embodiment 7] was tested, and the “protection of H2O2-induced neural tumor cell damages” value [1] was “significantly protected”.
C[C@H]1CC[C@@]2(OC1)O[C@H]1C[C@H]3[C@@H]4CC[C@@H]5CC(NC(=O)CCN6CCN(C)CC6)CC[C@]5(C)[C@H]4CC[C@]3(C)[C@H]1[C@@H]2C (stereo partly shown) [Embodiment 1] was tested, and the “protective effects on L-Cystine” value [4] was “protective effects”.
For N[C@H](CCCP(=O)(O)O)C(=O)O [AP5, (2R)-amino-5-phosphonopentanoic acid(phosphonatopentanoate), reference compound], the “protective effect on the neuronal excitotoxicity” value ([4]; AP5 100 μM) was “very significant protective effect” and the “proportion of dead cells” value ([4]; AP5 100 μM, L-Cystine 400 μM + NaHCO3 10 mM, without inducer 20.12%, DMSO 87.62%) was 27.58%.
C[C@@H]1CC[C@@]2(OC1)OC1CC3C4CC[C@H]5C[C@@H](NC(=O)CCN(C)C)CC[C@]5(C)C4CC(=O)[C@]3(C)C1[C@@H]2C (stereo partly shown) [Embodiment 20A] was tested, and the IL-10 in hippocampus [5] was “only affected”, the IL-10 in serum [5] was “only affected” and the “anti-inflammatory effect (in words)” value [5] was “obvious anti-inflammatory effect; also recorded: good anti-inflammatory effect”. For the same compound, the “antioxidant effect (in words)” value [5] was “good antioxidant effect”, the “H2O2 concentration in serum” value ([5]; vs LPS group) was “significantly improved” and the “NO concentration in serum” value ([5]; vs LPS group) was “significantly improved”. The “ROS level in serum” value ([5]; vs LPS group) was “significantly improved”.
In the case of O=C(O)c1cc(/N=N/c2ccc(S(=O)(=O)Nc3ccccn3)cc2)ccc1O [SASP, reference compound], the colon atrophy ([6]; 720 mg/kg positive drug) is reported as “could inhibit colon atrophy” and the “general conditions of DSS colitis mice” value ([6]; 720 mg/kg positive drug) is reported as “certain improvement effects”.
With CC(C)CN1CCN(C2CCN(C(=O)CC(=O)NC3CC[C@]4(C)C5CC[C@]6(C)[C@@H]7[C@H](C[C@H]6[C@@H]5CC[C@@H]4C3)O[C@]3(CC[C@H](C)CO3)[C@H]7C)CC2)CC1 (stereo partly shown) [Embodiment 33] the colon length [6, 7] was “could increase the weights and lengths of the colons”, the colon weight [6, 7] was “could increase the weights and lengths of the colons” and the “general conditions of DSS colitis mice” value [6, 7] was “certain improvement effects”.
With CC(C)N1CCC(N2CCN(C(=O)CC(=O)NC3CC[C@]4(C)C5CC[C@]6(C)[C@@H]7[C@H](C[C@H]6[C@@H]5CC[C@@H]4C3)O[C@]3(CC[C@H](C)CO3)[C@H]7C)CC2)CC1 (stereo partly shown) [Embodiment 34] the colon length [6, 7] was “could increase the weights and lengths of the colons”, the colon weight [6, 7] was “could increase the weights and lengths of the colons” and the “general conditions of DSS colitis mice” value [6, 7] was “certain improvement effects”.
In the case of C[C@H]1CC[C@@]2(OC1)O[C@H]1C[C@H]3[C@@H]4CC[C@@H]5CC(NC(=O)CC(=O)N6CCNCC6)CC[C@]5(C)[C@H]4CC[C@]3(C)[C@H]1[C@@H]2C (stereo partly shown) [Embodiment 10], the “protective effects on L-Cystine” value [4] is reported as “protective effects”.
